Experimental data reported in ChEMBL document CHEMBL1629634, “Postantibiotic effect of tigecycline against 14 gram-positive organisms” (Antimicrob Agents Chemother, 2009).

Assays:
[1] = system: Streptococcus pneumoniae; experiment: Antibacterial activity against penicillin-intermediate Streptococcus pneumoniae assessed as post-antibiotic sub-MIC effect at 0.2 times MIC concentration pretreated with 10 times MIC concentration for 1 hr followed by 1:1000 dilution by viable plate count method; type: functional
[2] = system: Streptococcus pneumoniae; experiment: Antibacterial activity against penicillin-resistant Streptococcus pneumoniae assessed as post-antibiotic sub-MIC effect at 0.2 times MIC concentration pretreated with 10 times MIC concentration for 1 hr followed by 1:1000 dilution by viable plate count method; type: functional
[3] = system: Klebsiella pneumoniae; experiment: Antibacterial activity against Klebsiella pneumoniae assessed as post-antibiotic sub-MIC effect at 0.2 times MIC concentration pretreated with 2 times MIC concentration for 1 hr followed by 1:1000 dilution by viable plate count method; type: functional
[4] = system: Enterobacter cloacae; experiment: Antibacterial activity against Enterobacter cloacae assessed as post-antibiotic sub-MIC effect at 0.2 times MIC concentration pretreated with 10 times MIC concentration for 1 hr followed by 1:1000 dilution by viable plate count method; type: functional
[5] = system: Acinetobacter baumannii; experiment: Antibacterial activity against multidrug-resistant Acinetobacter baumannii producing OXA-24 and OXA-51 beta-lactamases assessed as post-antibiotic sub-MIC effect at 0.2 times MIC concentration pretreated with 2 times MIC concentration for 1 hr followed by 1:1000 dilution by viable plate count method; type: functional
[6] = system: Streptococcus pneumoniae; experiment: Antibacterial activity against penicillin-intermediate Streptococcus pneumoniae assessed as sub-MIC effect at 0.3 times MIC concentration incubated for 1 hr by viable plate count method; type: functional
[7] = system: Acinetobacter baumannii; experiment: Antibacterial activity against Acinetobacter baumannii assessed as sub-MIC effect at 0.3 times MIC concentration incubated for 1 hr by viable plate count method; type: functional
[8] = system: Acinetobacter baumannii; experiment: Antibacterial activity against multidrug-resistant Acinetobacter baumannii producing OXA-24 and OXA-51 beta-lactamases assessed as sub-MIC effect at 0.3 times MIC concentration incubated for 1 hr by viable plate count method; type: functional
[9] = system: Staphylococcus aureus; experiment: Antibacterial activity against vancomycin-sensitive methicillin-resistant Staphylococcus aureus assessed as post-antibiotic sub-MIC effect at 0.3 times MIC concentration pretreated with 6 times MIC concentration for 1 hr followed by 1:1000 dilution by viable plate count method; type: functional
[10] = system: Klebsiella pneumoniae; experiment: Antibacterial activity against Klebsiella pneumoniae assessed as post-antibiotic sub-MIC effect at 0.3 times MIC concentration pretreated with 2 times MIC concentration for 1 hr followed by 1:1000 dilution by viable plate count method; type: functional
[11] = system: Enterobacter cloacae; experiment: Antibacterial activity against Enterobacter cloacae assessed as post-antibiotic sub-MIC effect at 0.3 times MIC concentration pretreated with 10 times MIC concentration for 1 hr followed by 1:1000 dilution by viable plate count method; type: functional
[12] = system: Acinetobacter baumannii; experiment: Antibacterial activity against Acinetobacter baumannii assessed as sub-MIC effect at 0.4 times MIC concentration incubated for 1 hr by viable plate count method; type: functional
[13] = system: Acinetobacter baumannii; experiment: Antibacterial activity against multidrug-resistant Acinetobacter baumannii producing OXA-24 and OXA-51 beta-lactamases assessed as sub-MIC effect at 0.4 times MIC concentration incubated for 1 hr by viable plate count method; type: functional
[14] = system: Staphylococcus aureus; experiment: Antibacterial activity against vancomycin-sensitive methicillin-resistant Staphylococcus aureus assessed as post-antibiotic sub-MIC effect at 0.4 times MIC concentration pretreated with 6 times MIC concentration for 1 hr followed by 1:1000 dilution by viable plate count method; type: functional
[15] = system: Staphylococcus aureus; experiment: Antibacterial activity against vancomycin-intermediate methicillin-resistant Staphylococcus aureus assessed as post-antibiotic sub-MIC effect at 0.4 times MIC concentration pretreated with 6 times MIC concentration for 1 hr followed by 1:1000 dilution by viable plate count method; type: functional
[16] = system: Haemophilus influenzae; experiment: Antibacterial activity against amoxicillin, clavulanate-resistant Haemophilus influenzae expressing beta-lactamase assessed as post-antibiotic sub-MIC effect at 0.4 times MIC concentration pretreated with 6 times MIC concentration for 1 hr followed by 1:1000 dilution by viable plate count method; type: functional
[17] = system: Enterococcus faecalis; experiment: Antibacterial activity against vancomycin-sensitive Enterococcus faecalis assessed as post-antibiotic sub-MIC effect at 0.3 times MIC concentration pretreated with 10 times MIC concentration for 1 hr followed by 1:1000 dilution by viable plate count method; type: functional
[18] = system: Haemophilus influenzae; experiment: Antibacterial activity against amoxicillin, clavulanate-resistant Haemophilus influenzae expressing beta-lactamase assessed as post-antibiotic sub-MIC effect at 0.3 times MIC concentration pretreated with 6 times MIC concentration for 1 hr followed by 1:1000 dilution by viable plate count method; type: functional
[19] = system: Acinetobacter baumannii; experiment: Antibacterial activity against Acinetobacter baumannii assessed as sub-MIC effect at 0.2 times MIC concentration incubated for 1 hr by viable plate count method; type: functional
[20] = system: Escherichia coli; experiment: Antibacterial activity against Escherichia coli assessed as sub-MIC effect at 0.2 times MIC concentration incubated for 1 hr by viable plate count method; type: functional
[21] = system: Staphylococcus aureus; experiment: Antibacterial activity against vancomycin-sensitive methicillin-resistant Staphylococcus aureus assessed as sub-MIC effect at 0.2 times MIC concentration incubated for 1 hr by viable plate count method; type: functional
[22] = system: Streptococcus pneumoniae; experiment: Antibacterial activity against penicillin-resistant Streptococcus pneumoniae assessed as sub-MIC effect at 0.2 times MIC concentration incubated for 1 hr by viable plate count method; type: functional
[23] = system: Acinetobacter baumannii; experiment: Antibacterial activity against multidrug-resistant Acinetobacter baumannii producing OXA-24 and OXA-51 beta-lactamases assessed as post antibiotic effect at 10 times MIC concentration incubated for 1 hr measured after 1:1000 dilution by viable plate count method; type: functional
[24] = system: Enterobacter cloacae; experiment: Antibacterial activity against Enterobacter cloacae assessed as post antibiotic effect at 2 times MIC concentration incubated for 1 hr measured after 1:1000 dilution by viable plate count method; type: functional
[25] = system: Klebsiella pneumoniae; experiment: Antibacterial activity against Klebsiella pneumoniae assessed as post antibiotic effect at 10 times MIC concentration incubated for 1 hr measured after 1:1000 dilution by viable plate count method; type: functional
[26] = system: Haemophilus influenzae; experiment: Antibacterial activity against amoxicillin, clavulanate-resistant Haemophilus influenzae expressing beta-lactamase assessed as post antibiotic effect at 6 times MIC concentration incubated for 1 hr measured after 1:1000 dilution by viable plate count method; type: functional
[27] = system: Staphylococcus aureus; experiment: Antibacterial activity against vancomycin-intermediate methicillin-resistant Staphylococcus aureus assessed as post antibiotic effect at 6 times MIC concentration incubated for 1 hr measured after 1:1000 dilution by viable plate count method; type: functional
[28] = system: Staphylococcus aureus; experiment: Antibacterial activity against vancomycin-sensitive methicillin-resistant Staphylococcus aureus assessed as post antibiotic effect at 6 times MIC concentration incubated for 1 hr measured after 1:1000 dilution by viable plate count method; type: functional
[29] = system: Streptococcus pneumoniae; experiment: Antibacterial activity against penicillin-intermediate Streptococcus pneumoniae assessed as post antibiotic effect at 10 times MIC concentration incubated for 1 hr measured after 1:1000 dilution by viable plate count method; type: functional
[30] = system: Enterobacter cloacae; experiment: Antibacterial activity against Enterobacter cloacae assessed as post-antibiotic sub-MIC effect at 0.4 times MIC concentration pretreated with 2 times MIC concentration for 1 hr followed by 1:1000 dilution by viable plate count method; type: functional
[31] = system: Enterococcus faecium; experiment: Antibacterial activity against Enterococcus faecium assessed as post antibiotic effect; type: functional
[32] = Drug level in patient serum at 100 mg, iv followed by 50 mg every 12 hrs after 60 mins post dose; type: ADME, organism-based; conditions: human, read-out: Drug uptake

Compound `CN(C)c1cc(NC(=O)CNC(C)(C)C)c(O)c2c1C[C@H]1C[C@H]3[C@H](N(C)C)C(O)=C(C(N)=O)C(=O)[C@@]3(O)C(O)=C1C2=O` [TIGECYCLINE] has a PAE [1] of 6.1 h, a PAE [2] of 6.7 h and a PAE [3] of 1.8 h. The PAE [4] was 3.6 h, the PAE [5] was 1.2 h and the PAE [6] was 5.7 h. It also gave a PAE [7] of 1.5 h, a PAE [8] of 0.7 h and a PAE [9] of 4.9 h. It also gave a PAE [10] of 2 h, a PAE [11] of 5 h and a PAE [12] of 11.2 h. For the same compound, the PAE [13] was 1.9 h, the PAE [14] was 6.9 h and the PAE [15] was 10 h. For the same compound, the PAE [16] was 7.7 h, the PAE [17] was 6.8 h and the PAE [18] was 4.7 h. The PAE [19] was 0.3 h, the PAE [20] was 0 h and the PAE [21] was 0.2 h. It also gave a PAE [22] of 0.5 h, a PAE [23] of 1.3 h and a PAE [24] of 1 h. The PAE [25] was 1.7 h, the PAE [26] was 3.9 h and the PAE [27] was 4 h. The PAE [28] was 2.9 h, the PAE [29] was 1.9 h and the PAE [30] was 6.9 h. The PAE [31] was 2.5 h and the concentration at 1 h [32] was 600 ng/mL.
